Measurements published in patent US5840684A, “Glycopeptide antibiotic derivatives” (Eli Lilly and Company, priority 1995, dated 1998).
Converted amounts (≈) assume the structure as drawn.

How the values were obtained:
[1] = system: vancomycin-resistant enterococci; experiment: broth micro-dilution, mean geometric MIC; type: cell-based, Enterococcus faecium and Enterococcus faecalis; settings: enterococci, 24-hour incubation
[2] = system: Streptococcus pyogenes C203; experiment: broth micro-dilution MIC; type: cell-based
Experimental: (§1) The MIC's were determined using a standard broth micro-dilution assay.

[3] = system: Staphylococcus aureus X400; experiment: broth micro-dilution MIC; type: cell-based
Experimental: as §1

[4] = system: Staphylococcus aureus X778; experiment: broth micro-dilution MIC; type: cell-based
Experimental: as §1

[5] = system: Staphylococcus aureus SA1199; experiment: broth micro-dilution MIC; type: cell-based
Experimental: as §1

[6] = system: Entercoccus faecium 276; experiment: broth micro-dilution MIC; type: cell-based
Experimental: as §1

[7] = system: Staphylococcus aureus 446; experiment: broth micro-dilution MIC; type: cell-based
Experimental: as §1

[8] = system: Staphylococcus aureus SA1199A; experiment: broth micro-dilution MIC; type: cell-based
Experimental: as §1

[9] = system: Entercoccus faecium 180-1; experiment: broth micro-dilution MIC; type: cell-based
Experimental: as §1

[10] = system: Staphylococcus aureus 489; experiment: broth micro-dilution MIC; type: cell-based
Experimental: as §1

[11] = system: Staphylococcus aureus 447; experiment: broth micro-dilution MIC; type: cell-based
Experimental: as §1

[12] = system: Staphylococcus aureus 491; experiment: broth micro-dilution MIC; type: cell-based
Experimental: as §1

[13] = system: Entercoccus faecium 2041; experiment: broth micro-dilution MIC; type: cell-based; settings: Entercoccus faecium 2041
Experimental: (§2) The formula I compounds have in vitro and in vivo activity against Gram-positive pathogenic bacteria. The MIC's were determined using a standard broth micro-dilution assay.

[14] = system: Enterococcus gallinarum 245; experiment: broth micro-dilution MIC; type: cell-based; settings: Enterococcus gallinarum 245
Experimental: as §2

[15] = system: Staphylococcus haemolyticus 105; experiment: broth micro-dilution MIC; type: cell-based
Experimental: as §2

[16] = system: Staphylococcus haemolyticus 415; experiment: broth micro-dilution MIC; type: cell-based
Experimental: as §2

[17] = system: Streptococcus pneumoniae P1; experiment: broth micro-dilution MIC; type: cell-based
Experimental: as §2

[18] = system: Entercoccus faecium 180; experiment: broth micro-dilution MIC; type: cell-based; settings: Entercoccus faecium 180
Experimental: as §2

[19] = system: Staphylococcus epidermidis 270; experiment: broth micro-dilution MIC; type: cell-based
Experimental: as §2

[20] = system: vancomycin-susceptible enterococci; experiment: broth micro-dilution, mean geometric MIC; type: cell-based, Enterococcus faecium and Enterococcus faecalis; settings: enterococci, 24-hour incubation
[21] = system: Staphylococcus aureus S13E; type: cell-based
Experimental: as §1

[22] = system: Staphylococcus aureus SA1199B; type: cell-based
Experimental: as §1

| SMILES | mean geometric MIC, Vancomycin Resistant Strains [1] [µg/mL] | MIC [2] [µg/mL] | MIC [3] [µg/mL] | MIC [4] [µg/mL] | MIC [5] [µg/mL] | MIC [6] [µg/mL] | MIC [7] [µg/mL] | MIC [8] [µg/mL] | MIC [9] [µg/mL] | MIC [10] [µg/mL] | MIC [11] [µg/mL] | MIC [12] [µg/mL] | MIC [13] [µg/mL] | MIC [14] [µg/mL] | MIC [15] [µg/mL] | MIC [16] [µg/mL] | MIC [17] [µg/mL] | MIC [18] [µg/mL] | MIC [19] [µg/mL] | mean geometric MIC, Vancomycin Sensitive Strains [20] [µg/mL] | also measured |
| --- | --- | --- | --- | --- | --- | --- | --- | --- | --- | --- | --- | --- | --- | --- | --- | --- | --- | --- | --- | --- | --- |
| CNC(CC(C)C)C(=O)NC1C(=O)NC(CC(N)=O)C(=O)NC2C(=O)NC3C(=O)NC(C(=O)NC(C(=O)O)c4cc(O)cc(O)c4-c4cc3ccc4O)C(OC3CC(C)(N)C(O)C(C)O3)c3ccc(c(Cl)c3)Oc3cc2cc(c3OC2OC(CO)C(O)C(O)C2OC2CC(C)(NCc3ccc(OC)c(OCC4CCCCC4)c3)C(O)C(C)O2)Oc2ccc(cc2Cl)C1O (stereo not shown) [Compound 142] | 45 | ≤ 0.06 | 1 (≈ 0.548 µM) | 1 (≈ 0.548 µM) | 1 (≈ 0.548 µM) | 1 (≈ 0.548 µM) | 2 (≈ 1.1 µM) | ≤ 0.06 | ≤ 0.06 | 0.5 (≈ 0.274 µM) | 2 (≈ 1.1 µM) | 0.5 (≈ 0.274 µM) | ≤ 0.06 | 1 (≈ 0.548 µM) | 1 (≈ 0.548 µM) | 1 (≈ 0.548 µM) | ≤ 0.06 | 0.5 (≈ 0.274 µM) | 0.25 (≈ 0.137 µM) | 1.5 | MIC [21]: 2 µg/mL (≈ 1.1 µM); MIC [22]: 2 µg/mL (≈ 1.1 µM) |
| CCCCCC#Cc1ccc(CNC2(C)CC(OC3C(Oc4c5cc6cc4Oc4ccc(cc4Cl)C(OC4CC(C)(N)C(O)C(C)O4)C4NC(=O)C(NC(=O)C6NC(=O)C(CC(N)=O)NC(=O)C(NC(=O)C(CC(C)C)NC)C(O)c6ccc(c(Cl)c6)O5)c5ccc(O)c(c5)-c5c(O)cc(O)cc5C(C(=O)O)NC4=O)OC(CO)C(O)C3O)OC(C)C2O)cc1 (stereo not shown) [Compound 227] | 0.71 | ≤ 0.06 | 1 (≈ 0.563 µM) | 4 (≈ 2.25 µM) | 4 (≈ 2.25 µM) | 0.5 (≈ 0.281 µM) | 2 (≈ 1.13 µM) | 0.6 (≈ 0.338 µM) | ≤ 0.06 | 2 (≈ 1.13 µM) | 2 (≈ 1.13 µM) | 2 (≈ 1.13 µM) | 0.25 (≈ 0.141 µM) | 4 (≈ 2.25 µM) | 2 (≈ 1.13 µM) | 4 (≈ 2.25 µM) | ≤ 0.06 | 0.25 (≈ 0.141 µM) | 2 (≈ 1.13 µM) | 0.11 | MIC [21]: 4 µg/mL (≈ 2.25 µM); MIC [22]: 4 µg/mL (≈ 2.25 µM) |
| CNC(CC(C)C)C(=O)NC1C(=O)NC(CC(N)=O)C(=O)NC2C(=O)NC3C(=O)NC(C(=O)NC(C(=O)O)c4cc(O)cc(O)c4-c4cc3ccc4O)C(OC3CC(C)(N)C(O)C(C)O3)c3ccc(c(Cl)c3)Oc3cc2cc(c3OC2OC(CO)C(O)C(O)C2OC2CC(C)(NCc3ccc(OC(=O)c4ccccc4)cc3)C(O)C(C)O2)Oc2ccc(cc2Cl)C1O (stereo not shown) [Compound 150] | 1.7 | ≤ 0.06 | ≤ 0.06 | 2 (≈ 1.11 µM) | 1 (≈ 0.555 µM) | 1 (≈ 0.555 µM) | 1 (≈ 0.555 µM) | ≤ 0.06 | ≤ 0.06 | 0.5 (≈ 0.277 µM) | 0.5 (≈ 0.277 µM) | ≤ 0.06 | ≤ 0.06 | 2 (≈ 1.11 µM) | 1 (≈ 0.555 µM) | 2 (≈ 1.11 µM) | ≤ 0.06 | 0.25 (≈ 0.139 µM) | 0.25 (≈ 0.139 µM) | 0.25 | MIC [21]: 0.25 µg/mL (≈ 0.139 µM); MIC [22]: 0.5 µg/mL (≈ 0.277 µM) |
| CNC(CC(C)C)C(=O)NC1C(=O)NC(CC(N)=O)C(=O)NC2C(=O)NC3C(=O)NC(C(=O)NC(C(=O)O)c4cc(O)cc(O)c4-c4cc3ccc4O)C(OC3CC(C)(N)C(O)C(C)O3)c3ccc(c(Cl)c3)Oc3cc2cc(c3OC2OC(CO)C(O)C(O)C2OC2CC(C)(NCc3cccnc3)C(O)C(C)O2)Oc2ccc(cc2Cl)C1O (stereo not shown) [Compound 24] | 54 | ≤ 0.06 | 0.25 (≈ 0.148 µM) | 0.125 (≈ 0.0742 µM) | 0.5 (≈ 0.297 µM) | 0.25 (≈ 0.148 µM) | 0.5 (≈ 0.297 µM) | ≤ 0.06 | ≤ 0.06 | ≤ 0.06 | 1 (≈ 0.594 µM) | 0.5 (≈ 0.297 µM) | ≤ 0.06 | 0.25 (≈ 0.148 µM) | 4 (≈ 2.38 µM) | ≤ 0.06 | ≤ 0.06 | 4 (≈ 2.38 µM) | 1 (≈ 0.594 µM) | 0.67 | MIC [21]: ≤ 0.06 µg/mL; MIC [22]: 2 µg/mL (≈ 1.19 µM) |
| CNC(CC(C)C)C(=O)NC1C(=O)NC(CC(N)=O)C(=O)NC2C(=O)NC3C(=O)NC(C(=O)NC(C(=O)O)c4cc(O)cc(O)c4-c4cc3ccc4O)C(OC3CC(C)(N)C(O)C(C)O3)c3ccc(c(Cl)c3)Oc3cc2cc(c3OC2OC(CO)C(O)C(O)C2OC2CC(C)(NCc3cccc(Sc4ccc(C(C)(C)C)cc4)c3)C(O)C(C)O2)Oc2ccc(cc2Cl)C1O (stereo not shown) [Compound 228] | 1.0 | 0.125 (≈ 0.0677 µM) | 1 (≈ 0.541 µM) | 4 (≈ 2.17 µM) | 4 (≈ 2.17 µM) | 1 (≈ 0.541 µM) | 4 (≈ 2.17 µM) | ≤ 0.06 | ≤ 0.06 | 2 (≈ 1.08 µM) | 4 (≈ 2.17 µM) | 1 (≈ 0.541 µM) | 0.25 (≈ 0.135 µM) | 4 (≈ 2.17 µM) | 2 (≈ 1.08 µM) | 4 (≈ 2.17 µM) | ≤ 0.06 | 1 (≈ 0.541 µM) | 2 (≈ 1.08 µM) | 0.14 | MIC [21]: 8 µg/mL (≈ 4.33 µM); MIC [22]: 4 µg/mL (≈ 2.17 µM) |
| CNC(CC(C)C)C(=O)NC1C(=O)NC(CC(N)=O)C(=O)NC2C(=O)NC3C(=O)NC(C(=O)NC(C(=O)O)c4cc(O)cc(O)c4-c4cc3ccc4O)C(OC3CC(C)(N)C(O)C(C)O3)c3ccc(c(Cl)c3)Oc3cc2cc(c3OC2OC(CO)C(O)C(O)C2OC2CC(C)(NCc3ccc(N=Nc4ccccc4)cc3)C(O)C(C)O2)Oc2ccc(cc2Cl)C1O (stereo not shown) [Compound 210] | 0.84 | ≤ 0.06 | ≤ 0.06 | 1 (≈ 0.56 µM) | 0.5 (≈ 0.28 µM) | ≤ 0.06 | 2 (≈ 1.12 µM) | ≤ 0.06 | ≤ 0.06 | 1 (≈ 0.56 µM) | 0.5 (≈ 0.28 µM) | ≤ 0.06 | ≤ 0.06 | 1 (≈ 0.56 µM) | 1 (≈ 0.56 µM) | 1 (≈ 0.56 µM) | ≤ 0.06 | ≤ 0.06 | 0.25 (≈ 0.14 µM) | 0.041 | MIC [21]: ≤ 0.06 µg/mL; MIC [22]: 0.125 µg/mL (≈ 0.07 µM) |
| CNC(CC(C)C)C(=O)NC1C(=O)NC(CC(N)=O)C(=O)NC2C(=O)NC3C(=O)NC(C(=O)NC(C(=O)O)c4cc(O)cc(O)c4-c4cc3ccc4O)C(OC3CC(C)(N)C(O)C(C)O3)c3ccc(c(Cl)c3)Oc3cc2cc(c3OC2OC(CO)C(O)C(O)C2OC2CC(C)(NCc3cccc(Oc4ccc(Cl)cc4)c3)C(O)C(C)O2)Oc2ccc(cc2Cl)C1O (stereo not shown) [Compound 86] | 1.4 | ≤ 0.06 | 1 (≈ 0.553 µM) | 1 (≈ 0.553 µM) | 0.5 (≈ 0.276 µM) | ≤ 0.06 | 1 (≈ 0.553 µM) | ≤ 0.06 | ≤ 0.06 | 1 (≈ 0.553 µM) | 0.5 (≈ 0.276 µM) | 1 (≈ 0.553 µM) | ≤ 0.06 | 1 (≈ 0.553 µM) | 1 (≈ 0.553 µM) | 1 (≈ 0.553 µM) | ≤ 0.06 | ≤ 0.06 | 1 (≈ 0.553 µM) | 0.036 | MIC [21]: 1 µg/mL (≈ 0.553 µM); MIC [22]: 1 µg/mL (≈ 0.553 µM) |
